Patent US20180078615A1, “USE OF CCL2 TO INHIBIT ABNORMAL UTERINE BLEEDING” (UNIVERSITY OF SOUTH FLORIDA, priority 2015, published 2018)
Entries after “also recorded” stand apart in the source; their conditions may differ.

Columns and labels:
VSMCs = assay: qRT-PCR of H19, TMEM119, RARRES1 and CCL2 mRNA in cultured VSMCs; assay type: cell-based, human; settings: vs control
Procedure: (§1) VSMCs were thawed and cultured in medium 231 (M231; Life Technologies) with smooth muscle growth supplement (5% FBS; 2 ng/mL human basic fibroblast growth factor, 0.5 ng/mL human epidermal growth factor, 5 ng/mL heparin, 0.2 μg/mL insulin and 5 μg/mL BSA; Life Technologies) with 100 U/mL penicillin, 100 μg/mL streptomycin, 0.25 μg/mL fungizone. Confluent VSMCs were washed twice with 1×PBS to remove residual serum, passaged in 96-well or 6-well plates and incubated in parallel in M231 with 1% charcoal striped FBS with 0.1% ethanol (vehicle, control) or 10^−7 M MPA (Sigma-Aldrich) or 10^−7 M ETO (Organon) or 10^−7 M P4 (Sigma-Aldrich) for 15 min, 6, 48, and 72 h. VSMCs were then washed with ice-cold PBS and stored at −80° C. for further RNA and protein analyses.
For qRT-PCR, 500 ng total RNA from each treatment was reverse transcribed by using RETROscript kit (Ambion). qRT-PCR was performed using the TaqMan Gene Expression Assay Kits for H19, TMEM119, RARRES1, and CCL2 (TaqMan ID # Hs00262142_g1, Hs01938722_m1, Hs00161204_m1 and Hs00234140_m1, respectively; Life Technologies) as described previously (36). Expression of the target mRNAs was normalized to β-actin levels, and the 2^−ΔΔCT was used to calculate relative expression levels.

STAT1 = assay: Western blot of total and phosphorylated STAT1 in VSMCs; assay type: cell-based, human; settings: VSMCs treated for 15 min, vs control
Procedure: as §1
To confirm inhibition of STAT1 signaling in LAPC-treated VSMCs, detected by IPA, cell lysates from VSMCs were run in 10% Tris-HCl gel (Bio-Rad). Transfer onto membrane, blocking, washing, chemiluminescence development, and stripping/reprobing were performed as described previously (35). The membrane was incubated with antitotal STAT1 or antiphospho-STAT1 rabbit monoclonal antibodies (Cell Signaling) and then with peroxidase-conjugated goat anti-rabbit IgG (Vector Labs). Signals were developed by a chemiluminescence kit (GE Healthcare).

endometrial VSMCs = assay: αSMA and PCNA double-immunostaining of endometrium of oophorectomized guinea pigs (OVX-GPs); assay type: in vivo, guinea pig; settings: 21-d time-release pellets, mean±SEM
From the text: After receiving written informed consent at New York University under Institutional Review Board approval, paraffin sections were derived from banked paired endometrial tissues obtained before and after Depo therapy by […] biopsy from each reproductive age woman with regular menstrual cycles during the secretory phase (n=6). Based on an established animal model for LAPC-induced AUB in humans (9), nulliparous adult female pigmented GPs (weighing 525-775 g) were used in experimental procedures conforming to National Health and Medical Research Council Guidelines of Australia and approved by the Animal Ethics Committee of The University of Western Australia. GPs (n=24) were subjected to bilateral OVX and given subcutaneous 21-d time-release pellets (Innovative Research of America) containing MPA (50 mg/d; n=6) or 17β-Estradiol (E2) (0.1 mg/d; n=6), both MPA and E2 (n=6), or no pellets (n=6). On day 20 of exposure to the pellets, GPs were killed with pentobarbital and uterine tissues fixed in 10% formalin and processed for paraffin embedding. In vitro experiments used aortic VSMCs from premenopausal women (n=2) (Life Technologies). Paraffin sections (5 μm) from paired pre- vs. post-Depo treated human or GP endometria were deparaffinized, boiled in citrate buffer (pH: 6.0) and then incubated in methanol containing 3% H2O2. Following 10% normal horse serum blocking (Vector Labs), slides were incubated overnight at 4° C. with mouse anti-PCNA monoclonal antibody (EMD Millipore). After several rinses in Tris-buffered saline containing 0.1% tween-20 (TBS-T; pH 7.6) slides were then incubated with biotinylated anti-mouse IgG (Vector Labs) for 30 min, then with a streptavidin-peroxidase complex (Elite ABC kit; Vector Labs) for 30 min and with diaminobenzidine (DAB; Vector Labs) for 3 min. […] Slides were counterstained by Hematoxylin and evaluated by histological scoring (HSCORE), as described previously (34). (See details for HSCORE evaluation for αSMA immunoreactivity and PCNA quantitation in SI Materials and Methods). Staining intensity for α-SMA was semiquantitatively evaluated by Q:1 HSCORE (1). […] An HSCORE value was determined for each specimen by using the formula HSCORE=ΣPi (i+1), where Pi is the percentage of stained cells in each intensity category (i.e., i=1, 2, or 3). Quantitation of PCNA immunostaining was determined by counting the number of PCNA^+ (brown) and PCNA^- cell nuclei (blue) in VSMCs (αSMA immunostained cells) and obtaining the ratio of numbers of PCNA^+ cell nuclei to total αSMA^+ cells. For each slide, three different fields were evaluated microscopically at 200× magnification. Slides were evaluated at different times by two investigators blinded to tissue source, and the average HSCORE or percentage of cells with PCNA^+ nuclei to total αSMA^+ cells used.

Question: Which results are given for C#C[C@]1(O)CC[C@H]2[C@@H]3CCC4=CC(=O)CC[C@@H]4[C@H]3C(=C)C[C@@]21CC [ETO, etonogestrel]?
Answer: CCL2 mRNA levels (VSMCs): down-regulated; also recorded: significant inhibition; H19 mRNA (VSMCs): up-regulated; RARRES1 mRNA (VSMCs): down-regulated; TMEM119 mRNA (VSMCs): up-regulated; phosphorylated levels of STAT1 (STAT1): partially reduced; total STAT1 levels (STAT1): not

Question: CC(=O)O[C@]1(C(C)=O)CC[C@H]2[C@@H]3C[C@H](C)C4=CC(=O)CC[C@]4(C)[C@H]3CC[C@@]21C [MPA, medroxyprogesterone acetate] was tested. Which “CCL2 mRNA levels” value (VSMCs) did it give?
Answer: Its value is “significant inhibition”.

Question: And the “H19 mRNA” value (VSMCs)?
Answer: Its value is “up-regulated”.

Question: And the “RARRES1 mRNA” value (VSMCs)?
Answer: The value was “down-regulated”.

Question: What about the “TMEM119 mRNA” value (VSMCs) of the same molecule?
Answer: Its value is “up-regulated”.

Question: What about the “CCL2 mRNA levels” value (VSMCs; listed as WA) of the same molecule?
Answer: Its value is “down-regulated”.

Question: What about the “phosphorylated levels of STAT1” value (STAT1) of the same molecule?
Answer: Its value is “partially reduced”.

Question: And the “total STAT1 levels” value (STAT1)?
Answer: Its value is “not”.

Question: And the “PCNA+ endometrial VSMCs” value (endometrial VSMCs; n=6, control 11.2%±2.3)?
Answer: The value was 10.2%±2.8.

Question: What about the “αSMA HSCORE” value (endometrial VSMCs; n=6, control 135.2±26.0) of the same molecule?
Answer: The value was 83.50±9.0.
